Laboratory results taken from ChEMBL document CHEMBL3526000 (Drug Metab Dispos, 2012).

Legend:
[1] = target: T1, UDP-glucuronosyltransferase 1A3 (Homo sapiens, UniProt P35503); assay: Drug metabolism assessed as recombinant human UGT1A3 assessed as O-glucuronidation at 100 uM incubated for 60 mins by LC-MS/MS analysis; format: ADME; conditions: recombinant enzyme, 1 h
T1 sequence (P35503 whole entry): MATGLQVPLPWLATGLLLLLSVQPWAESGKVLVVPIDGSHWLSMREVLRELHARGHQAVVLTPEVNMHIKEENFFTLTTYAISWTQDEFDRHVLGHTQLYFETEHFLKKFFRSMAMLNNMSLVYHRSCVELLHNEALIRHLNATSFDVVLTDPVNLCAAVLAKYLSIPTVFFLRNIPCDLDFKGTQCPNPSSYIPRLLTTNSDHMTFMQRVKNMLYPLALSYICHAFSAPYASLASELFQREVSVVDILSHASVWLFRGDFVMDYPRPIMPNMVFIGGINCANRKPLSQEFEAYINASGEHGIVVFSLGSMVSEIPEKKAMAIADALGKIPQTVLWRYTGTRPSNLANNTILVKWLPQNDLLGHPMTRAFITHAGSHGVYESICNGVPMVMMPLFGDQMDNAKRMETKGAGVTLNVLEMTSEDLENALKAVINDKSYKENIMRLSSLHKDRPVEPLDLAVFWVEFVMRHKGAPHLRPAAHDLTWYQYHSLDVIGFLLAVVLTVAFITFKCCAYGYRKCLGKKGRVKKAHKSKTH

[2] = target: T2, UDP-glucuronosyltransferase 1A8 (Homo sapiens, UniProt Q9HAW9); assay: Drug metabolism assessed as recombinant human UGT1A8 assessed as O-glucuronidation at 100 uM incubated for 60 mins by LC-MS/MS analysis; format: ADME; conditions: recombinant enzyme, 1 h
T2 sequence (Q9HAW9 whole entry): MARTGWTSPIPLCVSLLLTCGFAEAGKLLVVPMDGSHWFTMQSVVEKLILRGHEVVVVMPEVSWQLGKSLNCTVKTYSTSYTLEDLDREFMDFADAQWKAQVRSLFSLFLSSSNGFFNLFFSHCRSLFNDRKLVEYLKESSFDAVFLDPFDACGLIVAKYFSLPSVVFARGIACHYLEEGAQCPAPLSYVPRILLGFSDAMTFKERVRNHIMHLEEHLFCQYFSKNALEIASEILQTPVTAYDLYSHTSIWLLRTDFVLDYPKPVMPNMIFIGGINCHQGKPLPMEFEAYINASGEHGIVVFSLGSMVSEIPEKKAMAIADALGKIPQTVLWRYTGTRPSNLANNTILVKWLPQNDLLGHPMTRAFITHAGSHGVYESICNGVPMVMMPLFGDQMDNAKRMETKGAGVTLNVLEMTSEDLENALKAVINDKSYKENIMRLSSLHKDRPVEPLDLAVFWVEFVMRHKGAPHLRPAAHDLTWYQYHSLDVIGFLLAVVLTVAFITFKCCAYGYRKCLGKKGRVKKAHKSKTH

[3] = target: T3, UDP-glucuronosyltransferase 2B4 (Homo sapiens, UniProt P06133); assay: Drug metabolism assessed as recombinant human UGT2B4 assessed as O-glucuronidation at 100 uM incubated for 60 mins by LC-MS/MS analysis; format: ADME; conditions: recombinant enzyme, 1 h
T3 sequence (P06133 whole entry): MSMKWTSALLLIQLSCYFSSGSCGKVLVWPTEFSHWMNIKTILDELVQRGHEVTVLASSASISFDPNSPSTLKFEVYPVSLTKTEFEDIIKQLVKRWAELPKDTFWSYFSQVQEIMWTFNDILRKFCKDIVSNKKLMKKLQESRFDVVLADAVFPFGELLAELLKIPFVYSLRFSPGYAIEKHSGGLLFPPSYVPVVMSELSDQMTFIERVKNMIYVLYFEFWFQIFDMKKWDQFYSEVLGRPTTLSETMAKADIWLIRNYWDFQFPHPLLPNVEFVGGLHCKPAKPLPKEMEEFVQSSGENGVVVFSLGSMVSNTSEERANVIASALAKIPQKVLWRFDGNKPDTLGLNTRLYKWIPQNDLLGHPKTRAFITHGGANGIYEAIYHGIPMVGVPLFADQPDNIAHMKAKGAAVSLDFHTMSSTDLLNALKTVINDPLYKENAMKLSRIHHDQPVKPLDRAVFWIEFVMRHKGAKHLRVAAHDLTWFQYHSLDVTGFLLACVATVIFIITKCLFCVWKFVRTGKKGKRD

[4] = target: T2, UDP-glucuronosyltransferase 1A8; assay: Drug metabolism assessed as recombinant human UGT1A8 assessed as N-glucuronidation at 100 uM incubated for 60 mins by LC-MS/MS analysis; format: ADME; conditions: recombinant enzyme, 1 h
[5] = target: T4, UDP-glucuronosyltransferase 2B17 (Homo sapiens, UniProt O75795); assay: Drug metabolism assessed as recombinant human UGT2B17 assessed as N-glucuronidation at 100 uM incubated for 60 mins by LC-MS/MS analysis; format: ADME; conditions: recombinant enzyme, 1 h
T4 sequence (O75795 whole entry): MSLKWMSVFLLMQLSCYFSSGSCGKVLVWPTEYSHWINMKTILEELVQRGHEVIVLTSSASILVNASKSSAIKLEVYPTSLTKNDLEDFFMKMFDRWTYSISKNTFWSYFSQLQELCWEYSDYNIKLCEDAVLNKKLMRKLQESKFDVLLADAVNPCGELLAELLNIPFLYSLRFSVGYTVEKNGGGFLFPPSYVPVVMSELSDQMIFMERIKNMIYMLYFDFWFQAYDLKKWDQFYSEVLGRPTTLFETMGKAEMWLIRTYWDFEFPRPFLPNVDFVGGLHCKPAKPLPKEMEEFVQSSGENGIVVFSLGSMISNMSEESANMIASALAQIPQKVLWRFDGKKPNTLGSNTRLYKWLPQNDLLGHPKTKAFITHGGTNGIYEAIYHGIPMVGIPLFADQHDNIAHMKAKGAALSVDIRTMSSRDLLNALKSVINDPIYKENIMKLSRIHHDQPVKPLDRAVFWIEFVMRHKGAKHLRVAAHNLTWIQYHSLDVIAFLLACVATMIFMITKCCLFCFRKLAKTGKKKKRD

UGT2B7 = target: T5, UGT2B7 (Homo sapiens, UniProt P16662); assay: Drug metabolism assessed as recombinant human UGT2B7 assessed as O-glucuronidation at 10 to 400 uM incubated for 60 mins by LC-MS/MS analysis
T5 sequence (P16662 whole entry): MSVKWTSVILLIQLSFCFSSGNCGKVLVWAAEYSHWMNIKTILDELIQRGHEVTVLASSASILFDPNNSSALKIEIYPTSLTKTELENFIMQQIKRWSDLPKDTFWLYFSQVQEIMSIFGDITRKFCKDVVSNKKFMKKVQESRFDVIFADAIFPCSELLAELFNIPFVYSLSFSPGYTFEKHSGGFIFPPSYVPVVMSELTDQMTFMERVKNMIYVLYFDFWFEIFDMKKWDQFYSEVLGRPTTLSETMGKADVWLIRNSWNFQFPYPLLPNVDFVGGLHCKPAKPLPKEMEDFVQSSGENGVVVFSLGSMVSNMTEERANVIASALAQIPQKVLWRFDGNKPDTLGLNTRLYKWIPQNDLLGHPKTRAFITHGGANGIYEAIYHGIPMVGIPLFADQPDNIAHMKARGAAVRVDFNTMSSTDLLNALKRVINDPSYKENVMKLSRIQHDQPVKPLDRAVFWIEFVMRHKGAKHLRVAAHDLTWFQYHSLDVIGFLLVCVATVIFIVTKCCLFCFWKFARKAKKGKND

Question: How did the Drug metabolism [1] turn out when `O=C(CCCN1CCC(O)(c2ccc(Cl)cc2)CC1)c1ccc(F)cc1` [HALOPERIDOL] was run?
Answer: The Drug metabolism was “metabolite_not_detected”.

Question: What about the Drug metabolism [2] of the same compound?
Answer: Its Drug metabolism is “metabolite_not_detected”.

Question: And the Drug metabolism [3]?
Answer: Its Drug metabolism is “metabolite_not_detected”.

Question: What about the Drug metabolism [4] of the same compound?
Answer: The Drug metabolism was “metabolite_not_detected”.

Question: What about the Drug metabolism [5] of the same compound?
Answer: The Drug metabolism was “metabolite_not_detected”.

Question: What about the Km at 1 h, 400 µM (UGT2B7) of the same compound?
Answer: Its Km at 1 h, 400 µM is 45 µM.
